Data as given in patent US20250268826A1, “IONIZABLE LIPIDOID COMPOSITIONS AND THERAPEUTIC USES THEREOF” (Flagship Pioneering Innovations VII, LLC, priority 2023, published 2025).
Read-outs that look alike come from different tables or passages of the source. Each block holds one compound with its values, some of them ahead of it.

Experiments:
Type in all cases: physicochemical
[1] = LNP size and polydispersity index (PDI) by dynamic light scattering (DLS)
[2] = LNP Zeta potential measured using a Zetasizer (Malvern); details: for Zeta potential: hEPO mRNA, N:P 6; for Zeta potential (mV): LNP with hEPO mRNA, N:P ratio 6
[3] = Encapsulation efficiency (EE %) by fluorescence based Ribogreen assay
[4] = Table 5, LNP 50:10:38.5:1.5 mol %, hEPO mRNA, N:P 6
[5] = Table 5, LNP Lipid:DSPC:Cholesterol:DMG-PEG2k 50:10:38.5:1.5 mol %, hEPO mRNA, N:P 6
[6] = Table 5, LNP 50:10:38.5:1.5 mol %
[7] = Table 9, LNP 50:10:38.5:1.5 mol %, hEPO mRNA, N:P 6
[8] = Table 9, LNP Lipid:DSPC:Cholesterol:DMG-PEG2k 50:10:38.5:1.5 mol %, hEPO mRNA, N:P 6
[9] = Table 9, LNP 50:10:38.5:1.5 mol %
[10] = Table 8, LNP 50:10:38.5:1.5 mol %, hEPO mRNA, N:P 6
[11] = Table 8, LNP Lipid:DSPC:Cholesterol:DMG-PEG2k 50:10:38.5:1.5 mol %, hEPO mRNA, N:P 6
[12] = Table 8, LNP 50:10:38.5:1.5 mol %
[13] = Table 11, LNP with hEPO mRNA, Lipid:DSPC:Cholesterol:DMG-PEG2k 50:10:38.5:1.5 mol % (ALC-0315: 46.3:9.4:42.7:1.6), N:P ratio 6, HEPES/sodium chloride/sucrose buffer, stored at −80C
[14] = Table 11, Lipid:DSPC:Cholesterol:DMG-PEG2k 50:10:38.5:1.5 mol % (ALC-0315: 46.3:9.4:42.7:1.6), HEPES/sodium chloride/sucrose buffer, stored at −80C
[15] = Table 1, LNP lipid:DSPC:Cholesterol:DMG-PEG2k 50:10:38.5:1.5 mol %, hEPO mRNA, N:P 6
[16] = Table 3, LNP 50:10:38.5:1.5 mol %, hEPO mRNA, N:P 6
[17] = Table 3, LNP lipid:DSPC:Cholesterol:DMG-PEG2k 50:10:38.5:1.5 mol %, hEPO mRNA, N:P 6
[18] = Table 1, LNP lipid:DSPC:Cholesterol:DMG-PEG2k 50:10:38.5:1.5 mol %
[19] = Table 10, LNP with hEPO mRNA, Lipid:DSPC:Cholesterol:DMG-PEG2k 50:10:38.5:1.5 mol %, N:P ratio 6, DLS
[20] = Table 10, Lipid:DSPC:Cholesterol:DMG-PEG2k 50:10:38.5:1.5 mol %
[21] = Table 10, LNP with hEPO mRNA, Lipid:DSPC:Cholesterol:DMG-PEG2k 50:10:38.5:1.5 mol %, N:P ratio 6, Ribogreen assay

PDI [1, 4]: 0.337 | Size [1, 5]: 84.8 nm | Zeta potential [2, 6]: −5.94 mV | Encapsulation Efficiency % [3, 4]: 99.1%
SMILES: CCCCCCC(CCCC)C(=O)OCCN(CCOC(=O)C(CCCC)CCCCCC)C(=O)CN (stereo not shown) [Compound 602]

PDI [1, 4]: 0.403 | Size [1, 5]: 69.9 nm | Zeta potential [2, 6]: −3.371 mV | Encapsulation Efficiency % [3, 4]: 99.8%
SMILES: CCCCCCCCCCC(CCCC)C(=O)OCCN(CCOC(=O)C(CCCC)CCCCCCCCCC)C(=O)C(C)N (stereo not shown) [Compound 612]

PDI [1, 7]: 0.368 | Size [1, 8]: 76.7 nm | Zeta potential [2, 9]: −13.15 mV | Encapsulation Efficiency % [3, 7]: 98.2%
SMILES: CCCCCCCCC(CCCCCC)C(=O)OCCN(CCOC(=O)C(CCCCCC)CCCCCCCC)C(=O)CNCCC.Cl (stereo not shown) [Compound 968]

PDI [1, 10]: 0.215 | Size [1, 11]: 69.2 nm | Zeta potential [2, 12]: −8 mV | Encapsulation Efficiency % [3, 10]: 100%
SMILES: CCCCCCCCC(CCCCCC)C(=O)OCCN(CCOC(=O)C(CCCCCC)CCCCCCCC)C(=O)CCNCCC.Cl (stereo not shown) [Compound 908]

PDI [1, 13]: 0.076 | Size (nm) [1, 13]: 73.7 nm | Zeta potential (mV) [2, 14]: −5.1 mV | Encapsulation Efficiency % [3, 13]: 94.9%
SMILES: CCCCCCCCC(CCCCCC)C(=O)OCCN(CCOC(=O)C(CCCCCC)CCCCCCCC)C(=O)C(C)CCN1CCCCC1.Cl (stereo not shown) [Compound 987m]

SMILES: CCCCCCCC/C=C\CCCCCCCC(=O)OCCN(CCOC(=O)CCCCCCC/C=C\CCCCCCCC)C(=O)C(C)N (stereo not shown) [Compound 107]
Size [1, 15]: 100.4 nm | PDI [1, 16]: 0.016 | Size [1, 17]: 60.6 nm | Zeta potential [2, 18]: 5.484 mV | Encapsulation Efficiency % [3, 15]: 93% | Encapsulation Efficiency % [3, 16]: 99.9%

PDI [1, 10]: 0.088 | Size [1, 11]: 112.9 nm | Zeta potential [2, 12]: −8.2 mV | Encapsulation Efficiency % [3, 10]: 99.9%
SMILES: CCCCCCCCC(CCCCCC)C(=O)OCCN(CCOC(=O)C(CCCCCC)CCCCCCCC)C(=O)CCCN(C)CCO.Cl (stereo not shown) [Compound 986]

PDI [1, 10]: 0.189 | Size [1, 11]: 86.7 nm | Zeta potential [2, 12]: −1.6 mV | Encapsulation Efficiency % [3, 10]: 100%
SMILES: CCCCCCCCC(CCCCCC)C(=O)OCCN(CCOC(=O)C(CCCCCC)CCCCCCCC)C(=O)CCNC.Cl (stereo not shown) [Compound 904]

PDI [1, 15]: 0.387 | Size [1, 15]: 85.9 nm | Zeta potential [2, 18]: 6.011 mV | Encapsulation Efficiency % [3, 15]: 89.5%
SMILES: CCCCCCCCCCCC(=O)OCCN(CCOC(=O)CCCCCCCCCCC)C(=O)C(N)Cc1c[nH]cn1 (stereo not shown) [Compound 127]

PDI [1, 4]: 0.332 | Size [1, 5]: 49.4 nm | Zeta potential [2, 6]: −10.9 mV | Encapsulation Efficiency % [3, 4]: 98.9%
SMILES: CCCCCCCCCC(CCCCCCCCC)C(=O)OCCN(CCOC(=O)C(CCCCCCCCC)CCCCCCCCC)C(=O)C(N)Cc1ccccc1 (stereo not shown) [Compound 621]

PDI [1, 4]: 0.213 | Size [1, 5]: 71.7 nm | Zeta potential [2, 6]: −3.116 mV | Encapsulation Efficiency % [3, 4]: 98.4%
SMILES: CCCCCCCCC(CC)C(=O)OCCN(CCOC(=O)C(CC)CCCCCCCC)C(=O)CN (stereo not shown) [Compound 603]

PDI [1, 15]: 0.092 | Size [1, 15]: 77.3 nm | Zeta potential [2, 18]: 9.778 mV | Encapsulation Efficiency % [3, 15]: 97.5%
SMILES: CCCCCCCCCCCC(=O)OCCN(CCOC(=O)CCCCCCCCCCC)C(=O)CN [Compound 103]

PDI [1, 4]: 0.408 | Size [1, 5]: 104.2 nm | Zeta potential [2, 6]: −11.83 mV | Encapsulation Efficiency % [3, 4]: 98.7%
SMILES: CCCCCC(CCCCC)C(=O)OCCN(CCOC(=O)C(CCCCC)CCCCC)C(=O)C(N)Cc1ccccc1 (stereo not shown) [Compound 615]

PDI [1, 10]: 0.167 | Size [1, 11]: 111.9 nm | Zeta potential [2, 12]: −9.5 mV | Encapsulation Efficiency % [3, 10]: 99.9%
SMILES: CCCCCCCCC(CCCCCC)C(=O)OCCN(CCOC(=O)C(CCCCCC)CCCCCCCC)C(=O)CCCNCC.Cl (stereo not shown) [Compound 935]

PDI [1, 4]: 0.32 | Size [1, 5]: 63.7 nm | Zeta potential [2, 6]: −5.824 mV | Encapsulation Efficiency % [3, 4]: 99.1%
SMILES: CCCCCCCCC(CC)C(=O)OCCN(CCOC(=O)C(CC)CCCCCCCC)C(=O)C(N)Cc1ccccc1 (stereo not shown) [Compound 617]

PDI [1, 4]: 0.202 | Size [1, 5]: 77.3 nm | Zeta potential [2, 6]: −1.535 mV | Encapsulation Efficiency % [3, 4]: 99.7%
SMILES: CCCCCCCCC(CC)C(=O)OCCN(CCOC(=O)C(CC)CCCCCCCC)C(=O)C(C)N (stereo not shown) [Compound 610]

PDI [1, 4]: 0.23 | Size [1, 5]: 56.7 nm | Zeta potential [2, 6]: −5.044 mV | Encapsulation Efficiency % [3, 4]: 99%
SMILES: CCCCCCCCCCCCC(CC)C(=O)OCCN(CCOC(=O)C(CC)CCCCCCCCCCCC)C(=O)C(N)Cc1ccccc1 (stereo not shown) [Compound 620]

SMILES: CCCCCCCCC(CCCCCC)C(=O)OCCN(CCOC(=O)C(CCCCCC)CCCCCCCC)C(=O)C(C)CCN(C)C (stereo not shown) [Compound 987a]
PDI [1]: 0.104 | Size (nm) [1]: 73.2 nm | Zeta potential (mV) [2, 14]: −3.5 mV | Encapsulation Efficiency % [3]: 95.7%

PDI [1, 7]: 0.132 | Size [1, 8]: 74.9 nm | Zeta potential [2, 9]: −30.33 mV | Encapsulation Efficiency % [3, 7]: 99.6%
SMILES: CCCCCCCC(CCCCCCC)C(=O)OCCN(CCOC(=O)C(CCCCCCC)CCCCCCC)C(=O)CN(C)C.Cl [Compound 962]

PDI [1, 19]: 0.122 | Size (nm) [1, 19]: 106.9 nm | Zeta potential (mV) [2, 20]: −4.5 mV | Encapsulation Efficiency % [3, 21]: 84%
SMILES: CC/C=C\CCCCC(=O)OCCN(CCOC(=O)C(CCCCCC)CCCCCCCC)C(=O)CCN(CC)CC (stereo not shown) [Compound 917c]

PDI [1, 7]: 0.133 | Size [1, 8]: 74.5 nm | Zeta potential [2, 9]: −32.3 mV | Encapsulation Efficiency % [3, 7]: 99.5%
SMILES: CCCCCCCCC(CCCCCC)C(=O)OCCN(CCOC(=O)C(CCCCCC)CCCCCCCC)C(=O)CN1CCCCC1.Cl (stereo not shown) [Compound 960d]

SMILES: CCCCCCCCCC(CCCCCCCCC)C(=O)OCCN(CCOC(=O)C(CCCCCCCCC)CCCCCCCCC)C(=O)CCN(C)CC [Compound 917e]
PDI [1, 19]: 0.222 | Size (nm) [1, 19]: 52.5 nm | Zeta potential (mV) [2, 20]: −4.2 mV | Encapsulation Efficiency % [3, 21]: 95.4%

PDI [1, 10]: 0.146 | Size [1, 11]: 79.6 nm | Zeta potential [2, 12]: −6.1 mV | Encapsulation Efficiency % [3, 10]: 99.9%
SMILES: CCCCCCCCC(CCCCCC)C(=O)OCCN(CCOC(=O)C(CCCCCC)CCCCCCCC)C(=O)C(C)CNCC.Cl (stereo not shown) [Compound 925]

PDI [1, 16]: 0.033 | Size [1, 17]: 60.7 nm | Encapsulation Efficiency % [3, 16]: 99.7%
SMILES: CCCCCCCC/C=C\CCCCCCCC(=O)OCCN(CCOC(=O)CCCCCCC/C=C\CCCCCCCC)C(=O)[C@@H](N)Cc1ccccc1.Cl [Compound 202]

PDI [1, 16]: 0.032 | Size [1, 17]: 63.1 nm | Encapsulation Efficiency % [3, 16]: 99.9%
SMILES: CCCCCCCC/C=C\CCCCCCCC(=O)OCCN(CCOC(=O)CCCCCCC/C=C\CCCCCCCC)C(=O)[C@H](C)N.Cl [Compound 201]

PDI [1, 10]: 0.188 | Size [1, 11]: 74.1 nm | Encapsulation Efficiency % [3, 10]: 99.7%
SMILES: CCCCCCCCC(CCCCCC)C(=O)OCCN(CCOC(=O)C(CCCCCC)CCCCCCCC)C(=O)CC(C)NCCC.Cl (stereo not shown) [Compound 948]

Size [1, 15]: 93.8 nm | Encapsulation Efficiency % [3, 15]: 99.7%
SMILES: CCCCCCCCC(CCCCCC)C(=O)OCCN(CCOC(=O)C(CCCCCC)CCCCCCCC)C(=O)C(N)Cc1c[nH]cn1 (stereo not shown) [Compound 129]

SMILES: CCCCCCCCC(CCCCCC)C(=O)OCCN(CCOC(=O)C(CCCCCC)CCCCCCCC)C(=O)CN(C)C (stereo not shown) [Compound 961]
Encapsulation Efficiency % [3]: 99.8%

PDI [1, 15]: 0.46 | Size [1, 15]: 109.4 nm | Encapsulation Efficiency % [3, 15]: 99.4%
SMILES: CCCCCCCC/C=C\CCCCCCCC(=O)OCCN(CCOC(=O)CCCCCCC/C=C\CCCCCCCC)C(=O)C(N)Cc1c[nH]cn1 (stereo not shown) [Compound 125]
